{"source": "patent US11103505B2", "about": "“Formulations of a compound modulating kinases” (Plexxikon Inc., priority 2017, dated 2021)", "key": {"CYP3A4": {"biological_target": "T1, CYP3A4 (Homo sapiens, UniProt P08684)", "T1 construct": "from tissue; host or cells: human subjects in vivo (endogenous enzyme)", "T1 sequence (P08684 whole entry)": "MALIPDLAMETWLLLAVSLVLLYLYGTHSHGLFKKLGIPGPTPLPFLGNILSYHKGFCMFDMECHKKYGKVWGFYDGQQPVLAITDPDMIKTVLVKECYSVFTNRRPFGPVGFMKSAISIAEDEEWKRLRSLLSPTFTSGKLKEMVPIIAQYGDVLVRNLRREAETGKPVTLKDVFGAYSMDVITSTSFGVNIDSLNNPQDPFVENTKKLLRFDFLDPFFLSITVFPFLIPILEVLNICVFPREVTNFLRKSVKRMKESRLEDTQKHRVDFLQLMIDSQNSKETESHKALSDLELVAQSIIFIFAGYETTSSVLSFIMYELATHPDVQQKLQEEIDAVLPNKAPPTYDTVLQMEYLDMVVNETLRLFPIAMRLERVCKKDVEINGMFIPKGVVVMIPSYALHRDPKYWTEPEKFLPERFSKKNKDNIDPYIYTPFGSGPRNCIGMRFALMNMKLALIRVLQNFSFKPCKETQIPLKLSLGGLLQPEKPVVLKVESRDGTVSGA", "assay": "Addition of CYP inhibitors: metabolism of Compound I", "assay_type": "in vivo", "details": "observed in Phase I clinical trials"}, "[1]": {"assay": "Phase 1 Part A: single ascending dose PK of Compound I (75 mg HME tablet) in healthy subjects", "assay_type": "in vivo, human", "details": "for AUC(0-t) / AUC(0-inf) / Cmax / half-life / Vd/F / CL/F / t1/2: geometric mean (CV %); for Vd/F: read-out: Vz/F; for Tmax: median (minimum-maximum)", "method": "The 75 mg tablet formulation (described in Table 4) was made using the hot melt extrusion (HME) process described in this disclosure. This 75 mg tablet was used in human clinical studies (single-dose study in healthy volunteers) and (repeat-dose study in cancer patients). […] Following repeat dosing, the steady state exposure at the highest dose evaluated (900 mg BID), AUCt=68700 ng·hr/mL, approached the target efficacious exposure (Table 7).\n(§1) A total of 40 adult subjects with a mean age of 37 years were enrolled. Part A enrolled subjects into four single dose cohorts of Compound I ranging from 150 to 900 mg, and the PK data were evaluated to select the most appropriate dose level to use in Part B (900 mg). […] All doses of each drug were administered in the fasted state. This study used an amorphous solid dispersion formulation of Compound I produced with a hot-melt extrusion (HME) process."}, "[2]": {"assay": "Phase 1 Part B: effect of CYP3A4 inhibitor cobicistat on PK of Compound I (HME) in healthy subjects", "assay_type": "in vivo, human", "method": "as §1"}, "cytochrome P450 enzyme": {"biological_target": "cytochrome P450 enzyme (Homo sapiens, UniProt P08684)", "sequence (P08684 whole entry)": "as above", "assay": "CYP reaction phenotyping analysis", "assay_type": "in vitro ADME"}, "[3]": {"assay": "Phase 1 Part B: effect of CYP3A4 inhibitor cobicistat on PK of Compound I (HME) in healthy subjects", "assay_type": "in vivo, human", "remark": "listed apart in the source"}, "[4]": {"details": "human, in vivo, oral, single dose 150 mg, 75 mg HME tablet, fasted, N = 6"}, "[5]": {"details": "human, in vivo, oral, single dose 300 mg, 75 mg HME tablet, fasted, N = 5"}, "[6]": {"details": "human, in vivo, oral, single dose 450 mg, 75 mg HME tablet, fasted, N = 6"}, "[7]": {"details": "human, in vivo, oral, single dose 900 mg, 75 mg HME tablet, fasted, N = 6"}, "[8]": {"details": "single dose 150 mg, 75 mg HME tablet, fasted, N = 6"}, "[9]": {"details": "single dose 300 mg, 75 mg HME tablet, fasted, N = 5"}, "[10]": {"details": "single dose 450 mg, 75 mg HME tablet, fasted, N = 6"}, "[11]": {"details": "single dose 900 mg, 75 mg HME tablet, fasted, N = 6"}, "[12]": {"details": "900 mg level, compared with Compound I administered alone"}, "[13]": {"details": "human, in vivo, oral, Compound I 900 mg single dose alone, Part B, HME, fasted, N = 10, geometric mean (% CV)"}, "[14]": {"details": "300 mg level, compared with Compound I administered alone"}, "[15]": {"details": "human, in vivo, oral, Compound I 300 mg single dose alone, Part B, HME, fasted, N = 8, geometric mean (% CV)"}}, "note": "Entries after “also recorded” stand apart in the source; their conditions may differ. Read-outs that look alike come from different tables or passages of the source."}
{"smiles": "Nn1nnc2ccccc21", "note": "[ABT]", "values": [{"measurement": "effect of added CYP inhibitor on metabolism of Compound I", "setting": "CYP3A4", "value": "blocked the metabolism of Compound I"}]}
{"smiles": "O=C(c1c(F)ccc(NS(=O)(=O)N2CC[C@@H](F)C2)c1F)c1c[nH]c2ncc(-c3cnc(C4CC4)nc3)cc12", "note": "[Compound I, (R)-N-(3-(5-(2-cyclopropylpyrimidin-5-yl)-1H-pyrrolo[2,3-b]pyridine-3-carbonyl)-2,4-difluorophenyl)-3-fluoropyrrolidine-1-sulfonamide]", "values": [{"measurement": "AUC(0-t)", "setting": "[1]; human, in vivo, oral, 150 mg, single dose 150 mg, 75 mg HME tablet, fasted, N = 6, read-out: AUC0-12", "value": 7240, "unit": "ng·h/mL"}, {"measurement": "AUC(0-t)", "setting": "[1]; human, in vivo, oral, 150 mg, single dose 150 mg, 75 mg HME tablet, fasted, N = 6, read-out: AUC0-24", "value": 7720, "unit": "ng·h/mL"}, {"measurement": "AUC(0-t)", "setting": "[1]; human, in vivo, oral, 150 mg, single dose 150 mg, 75 mg HME tablet, fasted, N = 6, read-out: AUC0-t", "value": 7870, "unit": "ng·h/mL"}, {"measurement": "AUC(0-t)", "setting": "[1]; human, in vivo, oral, 300 mg, single dose 300 mg, 75 mg HME tablet, fasted, N = 5, read-out: AUC0-12", "value": 12100, "unit": "ng·h/mL"}, {"measurement": "AUC(0-t)", "setting": "[1]; human, in vivo, oral, 300 mg, single dose 300 mg, 75 mg HME tablet, fasted, N = 5, read-out: AUC0-24", "value": 12600, "unit": "ng·h/mL"}, {"measurement": "AUC(0-t)", "setting": "[1]; human, in vivo, oral, 300 mg, single dose 300 mg, 75 mg HME tablet, fasted, N = 5, read-out: AUC0-t", "value": 12900, "unit": "ng·h/mL"}, {"measurement": "AUC(0-t)", "setting": "[1]; human, in vivo, oral, 450 mg, single dose 450 mg, 75 mg HME tablet, fasted, N = 6, read-out: AUC0-12", "value": 21000, "unit": "ng·h/mL"}, {"measurement": "AUC(0-t)", "setting": "[1]; human, in vivo, oral, 450 mg, single dose 450 mg, 75 mg HME tablet, fasted, N = 6, read-out: AUC0-24", "value": 21800, "unit": "ng·h/mL"}, {"measurement": "AUC(0-t)", "setting": "[1]; human, in vivo, oral, 450 mg, single dose 450 mg, 75 mg HME tablet, fasted, N = 6, read-out: AUC0-t", "value": 22100, "unit": "ng·h/mL"}, {"measurement": "AUC(0-t)", "setting": "[1]; human, in vivo, oral, 900 mg, single dose 900 mg, 75 mg HME tablet, fasted, N = 6, read-out: AUC0-12", "value": 37500, "unit": "ng·h/mL"}, {"measurement": "AUC(0-t)", "setting": "[1]; human, in vivo, oral, 900 mg, single dose 900 mg, 75 mg HME tablet, fasted, N = 6, read-out: AUC0-24", "value": 39200, "unit": "ng·h/mL"}, {"measurement": "AUC(0-t)", "setting": "[1]; human, in vivo, oral, 900 mg, single dose 900 mg, 75 mg HME tablet, fasted, N = 6, read-out: AUC0-t", "value": 40000, "unit": "ng·h/mL"}, {"measurement": "AUC(0-inf)", "setting": "[1]; [4]", "value": 7610, "unit": "ng·h/mL"}, {"measurement": "Cmax", "setting": "[1]; [4]", "value": 2070, "unit": "ng/mL"}, {"measurement": "half-life", "setting": "[1]; [4]", "value": 8.18, "unit": "h"}, {"measurement": "Vd/F", "setting": "[1]; [4]", "value": 233, "unit": "L"}, {"measurement": "Tmax", "setting": "[1]; human, in vivo, oral, single dose 150 mg, 75 mg HME tablet, fasted, N = 6, read-out: tmax", "value": 2, "unit": "h"}, {"measurement": "AUC(0-inf)", "setting": "[1]; [5]", "value": 13200, "unit": "ng·h/mL"}, {"measurement": "Cmax", "setting": "[1]; [5]", "value": 4180, "unit": "ng/mL"}, {"measurement": "half-life", "setting": "[1]; [5]", "value": 9.56, "unit": "h"}, {"measurement": "Vd/F", "setting": "[1]; [5]", "value": 313, "unit": "L"}, {"measurement": "Tmax", "setting": "[1]; human, in vivo, oral, single dose 300 mg, 75 mg HME tablet, fasted, N = 5, read-out: tmax", "value": 2, "unit": "h"}, {"measurement": "AUC(0-inf)", "setting": "[1]; [6]", "value": 22400, "unit": "ng·h/mL"}, {"measurement": "Cmax", "setting": "[1]; [6]", "value": 7500, "unit": "ng/mL"}, {"measurement": "half-life", "setting": "[1]; [6]", "value": 8.36, "unit": "h"}, {"measurement": "Vd/F", "setting": "[1]; [6]", "value": 243, "unit": "L"}, {"measurement": "Tmax", "setting": "[1]; human, in vivo, oral, single dose 450 mg, 75 mg HME tablet, fasted, N = 6, read-out: tmax", "value": 1, "unit": "h"}, {"measurement": "AUC(0-inf)", "setting": "[1]; [7]", "value": 40400, "unit": "ng·h/mL"}, {"measurement": "Cmax", "setting": "[1]; [7]", "value": 13300, "unit": "ng/mL"}, {"measurement": "half-life", "setting": "[1]; [7]", "value": 9.12, "unit": "h"}, {"measurement": "Vd/F", "setting": "[1]; [7]", "value": 293, "unit": "L"}, {"measurement": "Tmax", "setting": "[1]; human, in vivo, oral, single dose 900 mg, 75 mg HME tablet, fasted, N = 6, read-out: tmax", "value": 1, "unit": "h"}, {"measurement": "PK linearity", "setting": "[1]; single ascending doses under fasted conditions", "value": "linear PK"}, {"measurement": "CL/F", "setting": "[1]; [8]", "value": "19.7 (46.9) L/hr"}, {"measurement": "t1/2", "setting": "[1]; [8]", "value": 8.18, "unit": "h"}, {"measurement": "CL/F", "setting": "[1]; [9]", "value": "22.7 (56.5) L/hr"}, {"measurement": "t1/2", "setting": "[1]; [9]", "value": 9.56, "unit": "h"}, {"measurement": "Tmax", "setting": "[1]; [9]", "value": "2.0 (1.0-2.0) hr"}, {"measurement": "CL/F", "setting": "[1]; [10]", "value": "20.1 (62.5) L/hr"}, {"measurement": "t1/2", "setting": "[1]; [10]", "value": 8.36, "unit": "h"}, {"measurement": "Tmax", "setting": "[1]; [10]", "value": "1.0 (1.0-2.0) hr"}, {"measurement": "CL/F", "setting": "[1]; [11]", "value": "22.3 (55.8) L/hr"}, {"measurement": "t1/2", "setting": "[1]; [11]", "value": 9.12, "unit": "h"}, {"measurement": "Tmax", "setting": "[1]; [11]", "value": "1.0 (1.0-2.0) hr"}, {"measurement": "exposure (Cmax and AUC) versus dose", "setting": "[1]; single dose 150 to 900 mg, 75 mg HME tablet, fasted", "value": "dose-proportional increase in exposure; also recorded: Exposure increased dose proportionally"}, {"measurement": "increase of mean AUC0-t and AUC0-∞ with cobicistat co-administration", "setting": "[2]; [12]", "value": 3.8, "unit": "fold"}, {"measurement": "increase of mean Cmax with cobicistat co-administration", "setting": "[2]; [12]", "value": 2.7, "unit": "fold"}, {"measurement": "AUC(0-t)", "setting": "[2]; human, in vivo, oral, 900 mg, Compound I 900 mg single dose alone, Part B, HME, fasted, N = 10, geometric mean (% CV)", "value": 34800, "unit": "ng·h/mL"}, {"measurement": "AUC(0-inf)", "setting": "[2]; [13]", "value": 35200, "unit": "ng·h/mL"}, {"measurement": "Cmax", "setting": "[2]; [13]", "value": 11400, "unit": "ng/mL"}, {"measurement": "half-life", "setting": "[2]; [13]", "value": 8.94, "unit": "h"}, {"measurement": "Tmax", "setting": "[2]; human, in vivo, oral, Compound I 900 mg single dose alone, Part B, HME, fasted, N = 10, median (minimum-maximum)", "value": 2, "unit": "h"}, {"measurement": "main cytochrome P450 enzyme responsible for metabolism", "setting": "cytochrome P450 enzyme", "value": "CYP3A4"}, {"measurement": "increase of mean AUC0-t and AUC0-∞ with cobicistat co-administration", "setting": "[3]; [14]", "value": 2.6, "unit": "fold"}, {"measurement": "increase of mean Cmax with cobicistat co-administration", "setting": "[3]; [14]", "value": 1.8, "unit": "fold"}, {"measurement": "AUC(0-t)", "setting": "[3]; human, in vivo, oral, 300 mg, Compound I 300 mg single dose alone, Part B, HME, fasted, N = 8, geometric mean (% CV), read-out: AUC0-24", "value": 15800, "unit": "ng·h/mL"}, {"measurement": "AUC(0-t)", "setting": "[3]; human, in vivo, oral, 300 mg, Compound I 300 mg single dose alone, Part B, HME, fasted, N = 8, geometric mean (% CV), read-out: AUC0-t", "value": 16200, "unit": "ng·h/mL"}, {"measurement": "AUC(0-t)", "setting": "[3]; human, in vivo, oral, 900 mg, Compound I 900 mg single dose alone, Part B, HME, fasted, N = 10, geometric mean (% CV), read-out: AUC0-24", "value": 34100, "unit": "ng·h/mL"}, {"measurement": "AUC(0-inf)", "setting": "[3]; [15]", "value": 16400, "unit": "ng·h/mL"}, {"measurement": "Cmax", "setting": "[3]; [15]", "value": 4840, "unit": "ng/mL"}, {"measurement": "half-life", "setting": "[3]; [15]", "value": 9.96, "unit": "h"}, {"measurement": "Tmax", "setting": "[3]; human, in vivo, oral, Compound I 300 mg single dose alone, Part B, HME, fasted, N = 8, median (minimum-maximum)", "value": 2, "unit": "h"}]}
